The text below walks through data of ChEMBL document CHEMBL1201862, “PubChem BioAssay data set” (2004).

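Five concentrations, 48 hours, 96-well plates. The concentration for 50% growth inhibition is given as GI50.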 Active and inactive are the calls of the source. Rule as the data show it: active = GI50 up to about 1.1 µM and inactive = higher.

Some test systems named below: MOLT-4; OVCAR-4; MDA-N; KM12; HT-29; OVCAR-3; UACC-257; SF-268; RXF 393; SW-620; NCI/ADR-RES; A498; A549; NCI-H226; SK-MEL-5; IGROV-1; ACHN; CAKI-1; HOP-92.
Holding throughout (test): growth of human tumour cells (NCI), 48 h

With `O=C(O)C(Cc1ccc2c(c1)CCC2)(Cc1ccc2c(c1)CCC2)C(=O)O`, the GI50 with MOLT-4, in the assay on OVCAR-4, with MDA-N, in the assay with KM12, in the assay with HT-29 and in the assay on OVCAR-3 was > 100 µM (inactive) in each case. For the same compound, the GI50 in the assay with UACC-257, in the assay with SF-268, with RXF 393, in the assay on SW-620, in the assay on NCI/ADR-RES and with A498 was > 100 µM (inactive) in each case. Also, the GI50 with A549, in the assay on NCI-H226, with SK-MEL-5, in the assay on IGROV-1 and with ACHN was > 100 µM (inactive) throughout.
For `C=CC(C)(C)/C(=C\CO[Si](C(C)C)(C(C)C)C(C)C)C(=O)N(C)c1ccccc1I`, the GI50 in the assay with MOLT-4 is 9.79 µM (inactive); in the assay with CAKI-1, 19 µM (inactive); with OVCAR-4, 23 µM (inactive); with MDA-N it was 16.4 µM (inactive); in the assay with KM12 it was 27.5 µM (inactive); in the assay on HT-29 it was 13.4 µM (inactive). Further, the GI50 in the assay with OVCAR-3 is 11.6 µM (inactive); in the assay on UACC-257, 13.3 µM (inactive); in the assay on SF-268 it was 11.5 µM (inactive); in the assay with RXF 393 it was 11.4 µM (inactive); in the assay with SW-620, 12.6 µM (inactive); in the assay on NCI/ADR-RES, 19.5 µM (inactive). Besides, the GI50 was 20.3 µM (inactive) in the assay on A498; 10.7 µM (inactive) in the assay with A549; 8.61 µM (inactive) in the assay with HOP-92; 17.7 µM (inactive) in the assay on SK-MEL-5; 15.5 µM (inactive) in the assay on IGROV-1; 13.1 µM (inactive) with ACHN.
`N#Cc1c(-c2ccccc2)[nH]c2ccc(Cl)cc2c1=O`: the GI50 with MOLT-4 is > 100 µM (inactive); with CAKI-1, 1.62 µM (inactive); with OVCAR-4, > 100 µM (inactive); in the assay with MDA-N, > 100 µM (inactive); in the assay on KM12 it was > 100 µM (inactive); in the assay on HT-29, > 100 µM (inactive). Moreover, the GI50 in the assay with OVCAR-3 is > 100 µM (inactive); in the assay on UACC-257 it was > 100 µM (inactive); in the assay on SF-268, 36.1 µM (inactive); in the assay on RXF 393 it was 20.7 µM (inactive); in the assay on SW-620, > 100 µM (inactive); in the assay on NCI/ADR-RES it was 92.9 µM (inactive). In addition, the GI50 was 13 µM (inactive) with A549; 38 µM (inactive) with NCI-H226; 22.9 µM (inactive) in the assay with HOP-92; > 100 µM (inactive) in the assay on SK-MEL-5; 63.1 µM (inactive) in the assay on IGROV-1; > 100 µM (inactive) in the assay on ACHN.
Regarding `CC(=O)O[C@H]1C(=O)[C@@]2(C)[C@H]([C@H](OC(=O)c3ccccc3)[C@]3(O)C[C@H](OC(=O)[C@H](O)[C@@H](NC(=O)c4ccoc4)c4ccccc4)C(C)=C1C3(C)C)[C@]1(OC(C)=O)CO[C@@H]1C[C@@H]2O`, the GI50 in the assay with MOLT-4 is 0.0332 µM (active); in the assay with OVCAR-4 it was 31.1 µM (inactive); with MDA-N it was 0.00361 µM (active); in the assay on KM12, < 0.01 µM (active); with HT-29, < 0.01 µM (active); with OVCAR-3, < 0.01 µM (active). Moreover, the GI50 in the assay with UACC-257 was 16 µM (inactive); with SF-268 it was 0.0325 µM (active); with RXF 393, < 0.01 µM (active); in the assay on SW-620, 0.021 µM (active); with NCI/ADR-RES it was 44 µM (inactive); with A498 it was 0.0713 µM (active). Further, the GI50 in the assay on A549 was 0.0386 µM (active); in the assay on NCI-H226 it was 0.0386 µM (active); with HOP-92 it was 0.552 µM (active); in the assay with SK-MEL-5, 0.028 µM (active); in the assay on IGROV-1 it was 0.016 µM (active); in the assay on ACHN it was 0.37 µM (active).
Regarding `CCOC(=O)C1(C(=O)OCC)[C@@H](c2ccccc2)C2=NO[C@@H]3CCC[C@H]1[C@H]23`, the GI50 in the assay with MOLT-4 was 55.7 µM (inactive); in the assay on CAKI-1, 44.9 µM (inactive); in the assay on OVCAR-4, 43 µM (inactive); with MDA-N, 24.5 µM (inactive); in the assay with KM12 it was 28.9 µM (inactive); in the assay with HT-29 it was 45.4 µM (inactive). Moreover, the GI50 with OVCAR-3 was 27 µM (inactive); in the assay with UACC-257 it was 24 µM (inactive); with SF-268, > 100 µM (inactive); in the assay with RXF 393, 48.4 µM (inactive); with SW-620 it was 43.8 µM (inactive); with NCI/ADR-RES it was 56.9 µM (inactive). Besides, the GI50 in the assay on A549 is 48.4 µM (inactive); with NCI-H226, 78.5 µM (inactive); with HOP-92 it was 42.7 µM (inactive); with SK-MEL-5, 24.3 µM (inactive); in the assay with IGROV-1, 50.4 µM (inactive); in the assay on ACHN it was 66.7 µM (inactive).
As to `Cc1cccc2c1c(=O)c1c(O)c3c(cc1n2C)OC(C)(C)C=C3`, the GI50 is > 10 µM (inactive) with MOLT-4; > 10 µM (inactive) in the assay on CAKI-1; > 10 µM (inactive) in the assay on OVCAR-4; > 10 µM (inactive) in the assay on MDA-N; > 10 µM (inactive) with KM12; 3.59 µM (inactive) in the assay on HT-29. Further, the GI50 in the assay on OVCAR-3, in the assay with UACC-257, with SF-268, with RXF 393, in the assay on SW-620 and in the assay on NCI/ADR-RES was > 10 µM (inactive) throughout. For the same compound, the GI50 with A498 is > 10 µM (inactive); in the assay with A549, > 10 µM (inactive); in the assay on NCI-H226 it was 6.46 µM (inactive); with SK-MEL-5, > 10 µM (inactive); in the assay with IGROV-1 it was > 10 µM (inactive); in the assay with ACHN, > 10 µM (inactive).
Consider `NCC(=O)N1CCN(c2nc(N3CCCC3)c3nc(Cl)c(NCc4ccccc4)nc3n2)CC1`, for which the GI50 in the assay with MOLT-4 was 1.12 µM (inactive); with CAKI-1 it was 2.44 µM (inactive); with OVCAR-4 it was 2.15 µM (inactive); in the assay on MDA-N, 1.82 µM (inactive); in the assay on KM12, 2.04 µM (inactive); in the assay on HT-29, 1.91 µM (inactive). Moreover, the GI50 is 1.82 µM (inactive) with OVCAR-3; 1.74 µM (inactive) with UACC-257; 2.07 µM (inactive) with SF-268; 1.43 µM (inactive) with RXF 393; 2.66 µM (inactive) in the assay on SW-620; 8.26 µM (inactive) in the assay on NCI/ADR-RES. The GI50 in the assay with A549 is 1.87 µM (inactive); with NCI-H226 it was 3.66 µM (inactive); with HOP-92 it was 1.45 µM (inactive); in the assay with SK-MEL-5, 1.72 µM (inactive); with IGROV-1, 1.63 µM (inactive); in the assay with ACHN it was 2.11 µM (inactive).
As to `COC(=O)c1c(C(=O)OC)c2ccccn2c1-c1cc(OC)c(Br)c(=O)o1`, the GI50 in the assay on MOLT-4, in the assay with OVCAR-4, in the assay with MDA-N, with KM12, with HT-29 and in the assay on OVCAR-3 was > 100 µM (inactive) in each case. In addition, the GI50 in the assay with UACC-257, with SF-268, with RXF 393, in the assay with SW-620, with NCI/ADR-RES and with A498 was > 100 µM (inactive) in each case. Besides, the GI50 in the assay on A549, with NCI-H226, in the assay on SK-MEL-5, in the assay on IGROV-1 and with ACHN was > 100 µM (inactive) throughout.
